In the assay the target is T1, human IKK-2 (rhIKK-2 homodimer) (Homo sapiens, UniProt O14920).
T1 construct: FLAG (DYKDDDDKD) (C); made in house; host or cells: insect cells (baculovirus, pFastBac)
T1 sequence (O14920 1-756): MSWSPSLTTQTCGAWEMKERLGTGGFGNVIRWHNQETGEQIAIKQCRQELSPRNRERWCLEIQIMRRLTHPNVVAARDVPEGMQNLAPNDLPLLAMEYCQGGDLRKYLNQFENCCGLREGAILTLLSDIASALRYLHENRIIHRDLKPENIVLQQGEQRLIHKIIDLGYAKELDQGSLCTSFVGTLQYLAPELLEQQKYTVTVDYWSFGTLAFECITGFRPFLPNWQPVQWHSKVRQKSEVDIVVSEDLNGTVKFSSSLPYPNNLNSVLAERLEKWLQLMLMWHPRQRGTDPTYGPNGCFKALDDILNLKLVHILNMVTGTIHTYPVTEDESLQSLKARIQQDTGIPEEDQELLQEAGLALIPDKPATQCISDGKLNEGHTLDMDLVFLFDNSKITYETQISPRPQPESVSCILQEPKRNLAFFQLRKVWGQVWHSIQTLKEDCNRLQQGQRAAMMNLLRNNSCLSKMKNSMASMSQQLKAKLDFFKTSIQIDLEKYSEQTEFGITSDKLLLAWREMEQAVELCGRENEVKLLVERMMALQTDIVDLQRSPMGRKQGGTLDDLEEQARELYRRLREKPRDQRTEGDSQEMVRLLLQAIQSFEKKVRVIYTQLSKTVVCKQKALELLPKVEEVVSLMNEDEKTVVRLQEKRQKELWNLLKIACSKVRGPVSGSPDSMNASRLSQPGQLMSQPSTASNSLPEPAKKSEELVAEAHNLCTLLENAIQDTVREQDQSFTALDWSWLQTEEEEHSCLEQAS
In words: IKK-2 Resin Enzyme Assay (Human IKK-2 Enzyme Assay). Conditions: human IKK-2, resin enzyme assay; read-out: IC50 (μM) hIKK-2. The class given is biochemical. An outline of the steps:
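C-terminally FLAG-tagged human IKK-2 homodimer, baculovirus-expressed in insect cells and anti-FLAG purified. Reaction mix: 5 μM biotinylated IκBα peptide (Ser32/Ser36 region), 1 μM ATP with [γ-33P]ATP, 2 mM MgCl2, 2 mM MnCl2, 10 mM NaF, 1 mM DTT, 25 mM HEPES pH 7.6. Incubated 30 min at 25 °C; IC50 derived.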

In the case of `N#Cc1ccc(-c2ccc(-n3cc(NC(N)=O)c(C(N)=O)n3)cc2)cc1` [Example 100, 4-[(aminocarbonyl)amino]-1-(4′-cyano-1,1′-biphenyl-4-yl)-1H-pyrazole-3-carboxamide], the IC50 is 1.15 µM. The figure for `N#CCCc1cccc(-c2ccc(-n3cc(NC(N)=O)c(C(N)=O)n3)cc2)c1` [Example 186, 4-[(aminocarbonyl)amino]-1-[3′-(2-cyanoethyl)-1,1′-biphenyl-4-yl]-1H-pyrazole-3-carboxamide] is 0.86 µM; for `NC(=O)Nc1cn(-c2ccc(-c3ccc(C(=O)OCc4cccc(F)c4)c(F)c3)cc2)nc1C(N)=O` [Example 163, 3-fluorobenzyl 4′-{3-(aminocarbonyl)-4-[(aminocarbonyl)amino]-1H-pyrazol-1-yl}-3-fluoro-1,1′-biphenyl-4-carboxylate] it is 16.6 µM; for `N#CCOc1cc(F)ccc1-c1ccc(-n2cc(NC(N)=O)c(C(N)=O)n2)cc1` [Example 173, 4-[(aminocarbonyl)amino]-1-[2′-(cyanomethoxy)-4′-fluoro-1,1′-biphenyl-4-yl]-1H-pyrazole-3-carboxamide] it is 0.15 µM. To `NC(=O)Nc1cn(-c2ccc(-c3ccccc3)cc2)nc1C(N)=O` [Example 101, 4-[(aminocarbonyl)amino]-1-(1,1′-biphenyl-4-yl)-1H-pyrazole-3-carboxamide] belongs 8.07 µM. To `CCOc1cc(-n2cc(NC(N)=O)c(C(N)=O)n2)ccc1Br` [Example 3, 4-[(aminocarbonyl)amino]-1-(4-bromo-3-ethoxyphenyl)-1H-pyrazole-3-carboxamide] belongs 1.35 µM; to `NC(=O)Nc1cn(-c2ccc(Sc3ccccn3)cc2)nc1C(N)=O` [Example 205, 1-(3-carbamoyl-1-(4-(pyridin-2-ylthio)phenyl)-1H-pyrazol-4-yl)urea], 1.13 µM; to `NC(=O)Nc1cn(-c2ccc(I)cc2)nc1C(N)=O` [Example 215, 4-[(aminocarbonyl)amino]-1-(4-iodophenyl)-1H-pyrazole-3-carboxamide], 0.322 µM. Consider `NC(=O)Nc1cn(-c2cccc(-c3cc(F)ccc3O)c2)nc1C(N)=O` [Example 93, 4-[(aminocarbonyl)amino]-1-(5′-fluoro-2′-hydroxy-1,1′-biphenyl-3-yl)-1H-pyrazole-3-carboxamide], for which the IC50 amounted to 3.1 µM. The figure for `NC(=O)Nc1cn(-c2ccc(S(=O)(=O)c3ccc(F)cc3)cc2)nc1C(N)=O` [Example 204, 1-(1-(4-(4-fluorophenylsulfonyl)phenyl)-3-carbamoyl-1H-pyrazol-4-yl)urea] is 0.013 µM; for `CN(C)CCN(C)C(=O)c1ccc(-c2ccc(-n3cc(NC(N)=O)c(C(N)=O)n3)cc2)cc1F` [Example 160, 4-[(aminocarbonyl)amino]-1-(4′-{[[2-(dimethylamino)ethyl](methyl)amino]carbonyl}-3′-fluoro-1,1′-biphenyl-4-yl)-1H-pyrazole-3-carboxamide] it is 4.79 µM; for `CC(C)(C)OC(=O)COc1cccc(-c2ccc(-n3cc(NC(N)=O)c(C(N)=O)n3)cc2)c1` [Example 174, tert-butyl [(4′-{3-(aminocarbonyl)-4-[(aminocarbonyl)amino]-1H-pyrazol-1-yl}-1,1′-biphenyl-3-yl)oxy]acetate] it is 3.67 µM. The figure for `NC(=O)Nc1cn(-c2ccc(-c3ccc(C(=O)O)c(F)c3)cc2)nc1C(N)=O` [Example 97, 4′-{3-(aminocarbonyl)-4-[(aminocarbonyl)amino]-1H-pyrazol-1-yl}-3-fluoro-1,1′-biphenyl-4-carboxylic acid] is 0.14 µM; for `NC(=O)Nc1cn(-c2ccc(Br)c(F)c2)nc1C(N)=O` [Example 225, 4-[(aminocarbonyl)amino]-1-(4-bromo-3-fluorophenyl)-1H-pyrazole-3-carboxamide] it is 0.378 µM; for `NC(=O)Nc1cn(-c2ccc(-c3cccc(O)c3)c(Cl)c2)nc1C(N)=O` [Example 7, 4-[(aminocarbonyl)amino]-1-(2-chloro-3′-hydroxy-1,1′-biphenyl-4-yl)-1H-pyrazole-3-carboxamide] it is 0.355 µM. Take `NC(=O)Nc1cn(-c2ccc(Br)c(C(F)(F)F)c2)nc1C(N)=O` [Example 1, 4-[(aminocarbonyl)amino]-1-[4-bromo-3-(trifluoromethyl)phenyl]-1H-pyrazole-3-carboxamide]: the IC50 was found to be 0.307 µM.

For the compound `NC(=O)Nc1cn(-c2ccc(-c3cc(F)ccc3O)cc2)nc1C(N)=O` [Example 99, 4-[(aminocarbonyl)amino]-1-(5′-fluoro-2′-hydroxy-1,1′-biphenyl-4-yl)-1H-pyrazole-3-carboxamide], the IC50 stood at 0.75 µM. To `Cc1cc(-n2cc(NC(N)=O)c(C(N)=O)n2)ccc1I` [Example 8, 1-(4-iodo-3-methyl-phenyl)-4-ureido-1H-pyrazole-3-carboxylic acid amide] belongs 0.0676 µM; to `Cc1cc(-c2cccc(O)c2)ccc1-n1cc(NC(N)=O)c(C(N)=O)n1` [Example 5, 4-[(aminocarbonyl)amino]-1-(3′-hydroxy-3-methyl-1,1′-biphenyl-4-yl)-1H-pyrazole-3-carboxamide], 5.09 µM. The figure for `NC(=O)Nc1cn(-c2ccc(-c3cccc(O)c3)cc2F)nc1C(N)=O` [Example 247, 4-[(aminocarbonyl)amino]-1-(3-fluoro-3′-hydroxy-1,1′-biphenyl-4-yl)-1H-pyrazole-3-carboxamide] is 0.457 µM; for `NC(=O)Nc1cn(-c2ccc(-c3ccc(C(=O)OCc4ccccc4F)c(F)c3)cc2)nc1C(N)=O` [Example 162, 2-fluorobenzyl 4′-{3-(aminocarbonyl)-4-[(aminocarbonyl)amino]-1H-pyrazol-1-yl}-3-fluoro-1,1′-biphenyl-4-carboxylate] it is 13.7 µM. As for `NC(=O)COc1cccc(-c2ccc(-n3cc(NC(N)=O)c(C(N)=O)n3)cc2)c1` [Example 175, 4-[(aminocarbonyl)amino]-1-[3′-(2-amino-2-oxoethoxy)-1,1′-biphenyl-4-yl]-1H-pyrazole-3-carboxamide], the IC50 is 0.18 µM. To `NC(=O)Nc1cn(-c2cccc(-c3ccc(F)cc3O)c2)nc1C(N)=O` [Example 92, 4-[(aminocarbonyl)amino]-1-(4′-fluoro-2′-hydroxy-1,1′-biphenyl-3-yl)-1H-pyrazole-3-carboxamide] belongs 6.61 µM; to `COc1ccc(-n2cc(NC(N)=O)c(C(N)=O)n2)cc1Cl` [Example 209, 4-[(Aminocarbonyl)amino]-1-(3-chloro-4-methoxyphenyl)-1H-pyrazole-3-carboxamide], 1.04 µM.

With `NC(=O)Nc1cn(-c2ccc(-c3ccc(C(=O)OCc4ccc(F)cc4)c(F)c3)cc2)nc1C(N)=O` [Example 164, 4-fluorobenzyl 4′-{3-(aminocarbonyl)-4-[(aminocarbonyl)amino]-1H-pyrazol-1-yl}-3-fluoro-1,1′-biphenyl-4-carboxylate], the IC50 came out at 11.3 µM. As for `NC(=O)Nc1cn(-c2ccc(S(=O)(=O)c3ccccc3F)cc2)nc1C(N)=O` [Example 194, 1-(1-(4-(2-fluorophenylsulfonyl)phenyl)-3-carbamoyl-1H-pyrazol-4-yl)urea], the IC50 is 0.15 µM. To `NC(=O)Nc1cn(-c2ccc(-c3cc4ccccc4[nH]3)cc2)nc1C(N)=O` [Example 141, 4-[(aminocarbonyl)amino]-1-[4-(1H-indol-2-yl)phenyl]-1H-pyrazole-3-carboxamide] belongs 11.4 µM; to `CNC(=O)Nc1cn(-c2cccc(Br)c2)nc1C(N)=O` [Example 15, 1-(3-bromophenyl)-4-{[(methylamino)carbonyl]amino}-1H-pyrazole-3-carboxamide], 8.05 µM. The figure for `N#CCOc1ccc(F)cc1-c1cccc(-n2cc(NC(N)=O)c(C(N)=O)n2)c1` [Example 94, 4-[(aminocarbonyl)amino]-1-[2′-(cyanomethoxy)-5′-fluoro-1,1′-biphenyl-3-yl]-1H-pyrazole-3-carboxamide] is 0.22 µM; for `CNC(=O)Nc1cn(-c2ccc(Br)cc2)nc1C(N)=O` [Example 16, 1-(4-bromophenyl)-4-{[(methylamino)carbonyl]amino}-1H-pyrazole-3-carboxamide] it is 3.1 µM. The figure for `Cc1cc(I)ccc1-n1cc(NC(N)=O)c(C(N)=O)n1` [Example 4, 1-(4-iodo-2-methyl-phenyl)-4-ureido-1H-pyrazole-3-carboxylic acid amide] is 2.87 µM; for `NC(=O)Nc1cn(-c2ccc(S(=O)(=O)C3CCCCC3)cc2)nc1C(N)=O` [Example 192, 1-(3-carbamoyl-1-(4-(cyclohexylsulfonyl)phenyl)-1H-pyrazol-4-yl)urea] it is 0.237 µM.

For the origin of these results see patent US20050197338A1, “Substituted pyrazole urea compounds for the treatment of inflammation” (priority 2003, published 2005).
